Legend:
H1975 cells = test: Cell cycle analysis by flow cytometry (propidium iodide); type: cell-based, human
Description: The effect of YL143 to induce cell cycle arrest and apoptosis in H1975 cells was investigated by flow cytometry analysis. […] Treatment with 300 nmol/L of YL143 for 48 h led to 82.11% G0/G1 phase arrest and 34.1% apoptosis. […] (Fig. 3C).
Figure 3 YL143 induces G0/G1 cell cycle arrest and apoptosis in H1975 cells. (A) YL143 induces G0/G1 cell cycle arrest in H1975 cells H1975 cells were treated with 3, 30 or 300 nmol/L for 48 h before DNA labeling by propidium iodide and cell cycle analysis by flow cytometry. (B) YL143 induces apoptosis in H1975 cells. H1975 cells were treated with 3, 30 or 300 nmol/L for 48 h before DNA labeling by Annexin V and 7‐AAD and cell apoptosis analysis by flow cytometry. (C) The effect of YL143 on the expression of CDK4, Cyclin D2, CDK2, Cyclin E, Caspase‐9 and Caspase‐3 was tested by western blotting. The cells were treated with YL143 from 3 to 300 nmol/L for 48 h. Representative results are shown and similar results were obtained in three other independent trials. […]

A431 (EGFR^WT) cells = test: CCK-8 cell growth assay, A431; type: cell-based; conditions: Homo sapiens, A-431; CCK-8, 72 h; read-out: antiproliferative IC50 A431
Description: Cells were seeded into 96‐well plates at a density of 1500~3000/well in complete medium overnight. Then, cells were treated with various concentrations (0.01~1000 nmol/L) of YL143 for additional 3 days. Viable cell numbers were determined by Cell Counting Kit 8 (CCK8, CK04, Dojindo Laboratories, Japan). Each assay consisted of three replicate wells and repeated at least three times. […] Each IC50 value was expressed as mean ± SD.

AKT1 = AKT1 (Homo sapiens, UniProt P31749); test: Z'-Lyte kinase panel, AKT1; type: biochemical; conditions: 1.5 hrs incubation
Description: (§1) Kinase activity assays were performed using the FRET-based Z′-Lyte assay according to the manufacturer’s instructions. The compounds were incubated with the kinase reaction mixture for 1.5 hrs before measurement. The data are means from two independent experiments and the variations are below 20%.

EGFR = target: T1, EGFR (Homo sapiens, UniProt P00533); test: Z'-Lyte kinase panel, EGFR; type: biochemical; conditions: 1.5 hrs incubation
T1 construct: purchased Invitrogen
Description: All EGFR (WT, L858R, L858R/T790M, etc.) recombinant human protein was purchased from Invitrogen. The kinase activity assay was performed and optimized according to the instructions of Z’‐LYTE™ kinase assay kits from the manufacturer (PV4879, Life, America). In our experiments, 10 concentration gradients from 0.01 nmol/L to 1.0 μmol/L were used for all the compounds.
as §1

[1] = test system: phosphorylation of EGFR and Erk in H1975 cells; test: Western blot of EGFR signaling in H1975 cells; type: cell-based, human; conditions: 4 h
Description: Cells were treated with various concentrations of compound for designed time. Then, cells were lysed using 1 × SDS sample lysis buffer (CST recommended) with protease and phosphatase inhibitors. Cell lysates were loaded and electrophoresed onto 8–12% SDS‐PAGE gel, and then, separated proteins were transferred to a PVDF film. The film was blocked with 5% fat‐free milk in TBS solution containing 0.5% Tween‐20 for 4 h at room temperature and then incubated with corresponding primary antibody (1:1000–1:200) overnight at 4°C. After washing with TBST, HRP‐conjugated secondary antibody was incubated for 2 h. And the protein signals were visualized by ECL Western Blotting Detection Kit (Thermo Scientific, Waltham, MA) and detected with Amersham Imager 600 system (GE, America).
Cells were treated with or without compound YL143 for 4 h at indicated concentration, respectively. Cells were harvested for Western blot analysis. […] NCI‐H1975 cells were treated with or without compound YL143(100 nmol/L) for 4 h, and then the medium with compound was removed and fresh medium was added. At the indicated time points, cells were harvest and proteins were extracted and subjected to Western blot analysis.

EGFR^Del 19 = target: T2, EGFR^Del 19 (Homo sapiens, UniProt P00533, DEL746-750); test: FRET-based Z'-Lyte kinase assay, EGFR Del 19; type: biochemical; conditions: AV ± SD; 1.5 h incubation
T2 construct: purchased Invitrogen
Description: (§2) The kinase activity assay was performed and optimized according to the instructions of Z’‐LYTE™ kinase assay kits from the manufacturer (PV4879, Life, America). In our experiments, 10 concentration gradients from 0.01 nmol/L to 1.0 μmol/L were used for all the compounds.

EGFR^L858R/T790M = EGFR^L858R/T790M (Homo sapiens, UniProt P00533, L858R/T790M); test: FRET-based Z'-Lyte kinase assay, EGFR L858R/T790M; type: biochemical; parameters: purchased Invitrogen
Description: as §2

PDGFRB = PDGFRB (Homo sapiens, UniProt P09619); test: Z'-Lyte kinase panel, PDGFRB; type: biochemical; conditions: 1.5 hrs incubation
Description: as §1

EGFR^WT = target: T3, EGFR^WT (Homo sapiens, UniProt P00533); test: FRET-based Z'-Lyte kinase assay, EGFR WT; type: biochemical; conditions: AV ± SD; 1.5 h incubation
T3 construct: purchased Invitrogen
Description: as §2

Chain of EGFR^L858R/T790M (P00533 25-1210 T790M/L858R): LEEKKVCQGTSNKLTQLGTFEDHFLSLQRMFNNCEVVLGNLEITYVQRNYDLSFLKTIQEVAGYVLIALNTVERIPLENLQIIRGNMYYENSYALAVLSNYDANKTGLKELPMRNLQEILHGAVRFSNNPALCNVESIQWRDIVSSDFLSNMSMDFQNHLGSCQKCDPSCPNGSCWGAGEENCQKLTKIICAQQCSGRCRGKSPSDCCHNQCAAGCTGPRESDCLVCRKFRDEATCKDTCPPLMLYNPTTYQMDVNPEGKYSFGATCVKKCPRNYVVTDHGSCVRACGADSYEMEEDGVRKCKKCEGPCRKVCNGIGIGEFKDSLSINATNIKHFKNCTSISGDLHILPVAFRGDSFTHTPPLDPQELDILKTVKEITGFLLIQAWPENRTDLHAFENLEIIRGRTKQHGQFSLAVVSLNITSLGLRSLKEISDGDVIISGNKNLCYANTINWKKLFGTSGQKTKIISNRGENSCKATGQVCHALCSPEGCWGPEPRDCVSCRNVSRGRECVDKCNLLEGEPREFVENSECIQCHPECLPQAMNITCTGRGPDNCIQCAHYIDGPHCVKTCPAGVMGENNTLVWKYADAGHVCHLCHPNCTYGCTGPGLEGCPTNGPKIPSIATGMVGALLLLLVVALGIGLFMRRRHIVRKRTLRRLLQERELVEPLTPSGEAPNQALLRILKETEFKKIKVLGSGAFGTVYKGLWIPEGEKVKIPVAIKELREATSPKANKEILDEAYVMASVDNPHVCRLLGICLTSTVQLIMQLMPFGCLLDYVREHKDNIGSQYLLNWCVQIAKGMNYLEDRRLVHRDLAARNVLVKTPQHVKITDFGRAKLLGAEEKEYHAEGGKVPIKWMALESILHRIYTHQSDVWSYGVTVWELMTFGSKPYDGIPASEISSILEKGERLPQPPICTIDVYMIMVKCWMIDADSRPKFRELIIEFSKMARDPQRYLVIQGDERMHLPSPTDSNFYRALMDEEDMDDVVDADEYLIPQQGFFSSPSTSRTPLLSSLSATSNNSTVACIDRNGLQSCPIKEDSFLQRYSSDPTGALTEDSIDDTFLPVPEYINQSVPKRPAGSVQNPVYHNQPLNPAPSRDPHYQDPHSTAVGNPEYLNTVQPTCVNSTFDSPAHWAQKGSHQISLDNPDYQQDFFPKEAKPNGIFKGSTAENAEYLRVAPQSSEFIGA
T2 sequence (P00533 with tags, fused parts or gaps DEL746-750): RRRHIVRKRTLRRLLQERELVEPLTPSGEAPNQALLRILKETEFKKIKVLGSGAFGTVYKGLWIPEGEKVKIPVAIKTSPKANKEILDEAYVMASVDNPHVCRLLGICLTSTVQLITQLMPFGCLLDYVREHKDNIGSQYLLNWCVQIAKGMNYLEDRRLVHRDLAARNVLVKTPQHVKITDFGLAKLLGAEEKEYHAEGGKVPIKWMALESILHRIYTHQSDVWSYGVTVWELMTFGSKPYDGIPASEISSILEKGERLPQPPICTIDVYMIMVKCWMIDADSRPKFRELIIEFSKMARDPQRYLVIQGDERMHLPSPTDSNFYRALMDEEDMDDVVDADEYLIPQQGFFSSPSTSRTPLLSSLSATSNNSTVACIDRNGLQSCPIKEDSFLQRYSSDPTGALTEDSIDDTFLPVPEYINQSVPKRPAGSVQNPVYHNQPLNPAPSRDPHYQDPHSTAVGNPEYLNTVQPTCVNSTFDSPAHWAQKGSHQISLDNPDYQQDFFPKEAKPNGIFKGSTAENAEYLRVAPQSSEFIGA
T1 sequence (P00533 669-1210 limits assumed): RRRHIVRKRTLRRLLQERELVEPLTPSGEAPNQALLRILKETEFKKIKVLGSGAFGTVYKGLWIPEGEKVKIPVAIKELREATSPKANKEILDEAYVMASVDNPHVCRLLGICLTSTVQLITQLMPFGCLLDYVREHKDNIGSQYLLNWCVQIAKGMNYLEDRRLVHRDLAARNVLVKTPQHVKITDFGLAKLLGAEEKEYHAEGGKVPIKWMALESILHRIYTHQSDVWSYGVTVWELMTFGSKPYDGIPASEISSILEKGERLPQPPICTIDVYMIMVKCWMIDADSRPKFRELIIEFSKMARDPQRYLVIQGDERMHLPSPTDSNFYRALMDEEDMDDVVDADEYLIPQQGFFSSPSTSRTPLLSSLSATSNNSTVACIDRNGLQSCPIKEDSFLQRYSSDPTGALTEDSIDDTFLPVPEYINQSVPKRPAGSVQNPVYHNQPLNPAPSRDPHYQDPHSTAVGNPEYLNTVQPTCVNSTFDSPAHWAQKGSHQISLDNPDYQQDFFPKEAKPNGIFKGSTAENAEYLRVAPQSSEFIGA
Chain of PDGFRB (P09619 33-1106, species assumed): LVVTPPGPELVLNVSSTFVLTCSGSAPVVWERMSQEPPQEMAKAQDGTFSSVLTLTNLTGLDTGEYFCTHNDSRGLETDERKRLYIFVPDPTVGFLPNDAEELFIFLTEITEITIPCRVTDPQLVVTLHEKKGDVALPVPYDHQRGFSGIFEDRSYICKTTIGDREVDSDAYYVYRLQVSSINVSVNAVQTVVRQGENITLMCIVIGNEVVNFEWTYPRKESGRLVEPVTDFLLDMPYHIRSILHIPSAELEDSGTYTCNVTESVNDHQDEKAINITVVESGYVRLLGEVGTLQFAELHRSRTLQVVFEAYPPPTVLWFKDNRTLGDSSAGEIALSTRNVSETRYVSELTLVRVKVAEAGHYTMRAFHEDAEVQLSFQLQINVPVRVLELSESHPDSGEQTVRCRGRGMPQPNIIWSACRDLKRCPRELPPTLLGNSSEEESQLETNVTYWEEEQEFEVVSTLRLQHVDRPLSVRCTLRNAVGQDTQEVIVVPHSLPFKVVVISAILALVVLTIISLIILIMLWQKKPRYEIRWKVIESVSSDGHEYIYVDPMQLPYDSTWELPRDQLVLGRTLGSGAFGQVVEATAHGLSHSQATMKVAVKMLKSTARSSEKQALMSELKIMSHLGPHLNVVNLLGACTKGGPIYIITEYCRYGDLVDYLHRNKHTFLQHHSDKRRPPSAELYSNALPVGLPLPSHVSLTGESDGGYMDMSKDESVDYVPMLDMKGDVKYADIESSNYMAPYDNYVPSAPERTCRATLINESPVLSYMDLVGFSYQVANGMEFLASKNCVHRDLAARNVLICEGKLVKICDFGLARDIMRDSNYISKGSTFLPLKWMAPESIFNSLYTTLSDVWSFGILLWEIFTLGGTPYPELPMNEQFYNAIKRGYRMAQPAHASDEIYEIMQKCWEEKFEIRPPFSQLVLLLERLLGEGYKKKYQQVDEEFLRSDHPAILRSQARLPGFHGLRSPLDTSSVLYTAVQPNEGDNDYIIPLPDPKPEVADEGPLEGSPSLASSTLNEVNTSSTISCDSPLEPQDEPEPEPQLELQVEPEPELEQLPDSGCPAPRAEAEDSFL
T3 sequence (P00533 25-1210): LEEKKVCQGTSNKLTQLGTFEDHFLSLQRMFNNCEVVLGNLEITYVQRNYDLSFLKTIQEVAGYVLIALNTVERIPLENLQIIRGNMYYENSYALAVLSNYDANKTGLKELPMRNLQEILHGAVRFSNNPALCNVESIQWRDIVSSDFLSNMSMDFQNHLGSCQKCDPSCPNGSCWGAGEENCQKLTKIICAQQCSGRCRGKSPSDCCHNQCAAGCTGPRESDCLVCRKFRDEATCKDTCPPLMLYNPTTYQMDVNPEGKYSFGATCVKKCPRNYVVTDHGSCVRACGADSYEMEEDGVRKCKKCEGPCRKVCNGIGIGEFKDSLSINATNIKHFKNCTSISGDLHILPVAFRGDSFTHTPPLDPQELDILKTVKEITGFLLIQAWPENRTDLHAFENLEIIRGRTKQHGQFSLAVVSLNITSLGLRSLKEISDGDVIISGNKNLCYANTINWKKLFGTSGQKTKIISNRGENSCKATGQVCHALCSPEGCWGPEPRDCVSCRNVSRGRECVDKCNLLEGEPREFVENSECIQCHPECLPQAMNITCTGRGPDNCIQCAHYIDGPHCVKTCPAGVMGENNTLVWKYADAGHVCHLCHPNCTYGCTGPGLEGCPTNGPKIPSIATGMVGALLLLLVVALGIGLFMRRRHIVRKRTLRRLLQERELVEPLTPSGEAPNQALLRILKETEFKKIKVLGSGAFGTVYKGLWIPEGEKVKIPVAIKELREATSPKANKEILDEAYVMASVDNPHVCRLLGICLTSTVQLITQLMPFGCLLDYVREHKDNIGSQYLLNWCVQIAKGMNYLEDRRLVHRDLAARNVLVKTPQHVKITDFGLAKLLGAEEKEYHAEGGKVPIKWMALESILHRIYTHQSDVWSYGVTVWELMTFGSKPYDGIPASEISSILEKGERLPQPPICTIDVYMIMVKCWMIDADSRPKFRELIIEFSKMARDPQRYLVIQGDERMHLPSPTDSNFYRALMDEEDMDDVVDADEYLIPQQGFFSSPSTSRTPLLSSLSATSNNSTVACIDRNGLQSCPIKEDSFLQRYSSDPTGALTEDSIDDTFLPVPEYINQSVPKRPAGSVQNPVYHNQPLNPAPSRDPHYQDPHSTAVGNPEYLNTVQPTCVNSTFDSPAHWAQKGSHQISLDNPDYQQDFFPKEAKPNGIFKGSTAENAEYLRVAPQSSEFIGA
Chain of AKT1 (P31749 whole entry, species assumed): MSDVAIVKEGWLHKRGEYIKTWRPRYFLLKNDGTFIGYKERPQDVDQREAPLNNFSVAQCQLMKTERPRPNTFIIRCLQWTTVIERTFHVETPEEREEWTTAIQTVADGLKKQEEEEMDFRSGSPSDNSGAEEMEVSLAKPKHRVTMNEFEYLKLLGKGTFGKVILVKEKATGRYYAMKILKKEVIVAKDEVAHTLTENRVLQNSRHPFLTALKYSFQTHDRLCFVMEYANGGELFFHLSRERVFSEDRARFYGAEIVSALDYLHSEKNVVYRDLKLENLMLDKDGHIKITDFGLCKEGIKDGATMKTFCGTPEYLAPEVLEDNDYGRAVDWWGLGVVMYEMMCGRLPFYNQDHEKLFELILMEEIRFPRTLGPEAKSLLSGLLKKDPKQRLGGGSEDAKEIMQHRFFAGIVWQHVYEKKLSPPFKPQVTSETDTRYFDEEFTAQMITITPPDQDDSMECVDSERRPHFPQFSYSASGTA

## C=CC(=O)Nc1cc(C)cc(-n2c(=O)cc(C)c3cnc(Nc4ccc(N5CCN(C)CC5)cc4OC)nc32)c1 [YL143, N‐(3‐(2‐((2‐Methoxy‐4‐(4‐methylpiperazin‐1‐yl)phenyl)amino)‐5‐methyl‐7‐oxopyrido [2,3‐d]pyrimidin‐8(7H)‐yl)‐5‐methylphenyl)acrylamide]
H1975 cells; 300 nmol/L, 48 h
  G0/G1 phase fraction: 82.11%
H1975 cells; H1975 cells, 30 nmol/L
  cell cycle arrest and apoptosis: induces G0/G1 phase arrest and apoptosis
A431 (EGFR^WT) cells
  IC50: > 1000 nM
AKT1
  IC50: > 10000 nM
EGFR
  IC50: 35.3 nM
[1]
  phosphorylation of EGFR and Erk: dose‐dependently inhibited
EGFR^Del 19
  IC50: 81.5 ± 10.3 nM
EGFR^L858R/T790M; AV ± SD, 1.5 h incubation
  IC50: 2 ± 0.3 nM
EGFR^L858R/T790M; parallel comparison
  potency factor over CO1686 and osimertinib on EGFR^L858R/T790M: 5–7
PDGFRB
  IC50: > 10000 nM
EGFR^WT
  IC50: 185 ± 43.4 nM
